Values of other authors in patent US8778869B2, “Tissue regeneration system” (Wisconsin Alumni Research Foundation, priority 2010, dated 2014).

B1: bone morphogenetic protein-2 (protein, listed as Homo sapiens)
chain: MVAGTRCLLALLLPQVLLGGAAGLVPELGRRKFAAASSGRPSSQPSDEVLSEFELRLLSMFGLKQRPTPSRDAVVPPYMLDLYRRHSGQPGSPAPDHRLERAASRANTVRSFHHEESLEELPETSGKTTRRFFFNLSSIPTEEFITSAELQVFREQMQDALGNNSSFHHRINIYEIIKPATANSKFPVTRLLDTRLVNQNASRWESFDVTPAVMRWTAQGHANHGFVVEVAHLEEKQGVSKRHVRISRSLHQDEHSWSQIRPLLVTFGHDGKGHPLHKREKRQAKHKQRKRLKSSCKRHPLYVDFSDVGWNDWIVAPPGYHAFYCHGECPFPLADHLNSTNHAIVQTLVNSVNSKIPKACCVPTELSAISMLYLDENEKVVLKNYQDMVVEGCGCR

Molecule | concentration of optimal in vitro biological activity
fibroblast growth factor-2 [FGF-2] | approximately 1 nM
B1 | approximately 1 nM
